Experimental data published in patent US20250382308A1, “COMPOUNDS ACTIVE TOWARDS BROMODOMAINS” (NUEVOLUTION A/S, priority 2022, published 2025).

Experiments:
[1] = biological target: first bromodomain of BRD4 (Homo sapiens (Human), UniProt O60885); experiment: Bromoscan binding assay BRD4 (1); conditions: for Kd: Bromoscan, geometric mean where multiple measurements have been made; for Selectivity BRD4(2)/BRD4(1): ratio BRD4(2) Kd / BRD4(1) Kd
Method: (§1) Compounds were assayed for binding affinity using bromoscan assays and a phosphodiesterase three assay.
(§2) Bromoscan assays were run by DiscoveRx Corporation. The relevant assay names are BRD4 (1) for the first bromodomain of BRD4 and BRD4 (2) for the second bromodomain of BRD4. Further Bromoscan assays covering other bromodomains may be employed to establish the selectivity profile of a compound of interest. To run the Bromoscan assay, a T7 phage strain displaying the relevant bromodomain was grown in parallel in 24-well blocks in an E. coli host derived from the BL21 strain. E. coli were grown to log-phase and infected with T7 phage from a frozen stock (multiplicity of infection=0.4) and incubated with shaking at 32° C. until lysis (90-150 minutes). The lysates were centrifuged (5,000×g) and filtered (0.2 μm) to remove cell debris. […] The liganded beads were blocked with excess biotin and washed with blocking buffer (SeaBlock (Pierce), 1% BSA (bovine serum albumin), 0.05% Tween 20, 1 mM DTT (dithiothreitol)) to remove unbound ligand and to reduce non-specific phage binding. […] Test compounds were prepared as 1000× stocks in 100% DMSO and subsequently diluted 1:10 in monoethylene glycol (MEG) to create stocks at 100× the screening concentration (resulting stock solution is 10% DMSO/90% MEG). The compounds were then diluted directly into the assays such that the final concentration of DMSO and MEG were 0.1% and 0.9%, respectively. All reactions were performed in polystyrene 96-well plates in a final volume of 0.135 ml. […] The bromodomain concentration in the eluates was measured by qPCR (quantitative real-time polymerase chain reaction). Binding constants (Kds) were calculated with a standard dose-response curve using the Hill equation: Response=Blackground+((Signal-Background)/(1+Kd^Hill Slope/Dose^Hill Slope)). The Hill Slope was set to −1. Curves were fitted using a non-linear least square fit with the Levenberg-Marquardt algorithm.

[2] = biological target: second bromodomain of BRD4 (Homo sapiens (Human), UniProt O60885); experiment: Bromoscan binding assay BRD4 (2); conditions: geometric mean where multiple measurements have been made
Method: as §1, §2

[3] = biological target: human recombinant phosphodiesterase (PDE3A) (Homo sapiens (Human), UniProt Q14432); experiment: Radiometric PDE3A assay; assay type: biochemical; conditions: [3H]-cAMP hydrolysis, 20 minutes at 30° C.
Chain of human recombinant phosphodiesterase (PDE3A) (Q14432 whole entry): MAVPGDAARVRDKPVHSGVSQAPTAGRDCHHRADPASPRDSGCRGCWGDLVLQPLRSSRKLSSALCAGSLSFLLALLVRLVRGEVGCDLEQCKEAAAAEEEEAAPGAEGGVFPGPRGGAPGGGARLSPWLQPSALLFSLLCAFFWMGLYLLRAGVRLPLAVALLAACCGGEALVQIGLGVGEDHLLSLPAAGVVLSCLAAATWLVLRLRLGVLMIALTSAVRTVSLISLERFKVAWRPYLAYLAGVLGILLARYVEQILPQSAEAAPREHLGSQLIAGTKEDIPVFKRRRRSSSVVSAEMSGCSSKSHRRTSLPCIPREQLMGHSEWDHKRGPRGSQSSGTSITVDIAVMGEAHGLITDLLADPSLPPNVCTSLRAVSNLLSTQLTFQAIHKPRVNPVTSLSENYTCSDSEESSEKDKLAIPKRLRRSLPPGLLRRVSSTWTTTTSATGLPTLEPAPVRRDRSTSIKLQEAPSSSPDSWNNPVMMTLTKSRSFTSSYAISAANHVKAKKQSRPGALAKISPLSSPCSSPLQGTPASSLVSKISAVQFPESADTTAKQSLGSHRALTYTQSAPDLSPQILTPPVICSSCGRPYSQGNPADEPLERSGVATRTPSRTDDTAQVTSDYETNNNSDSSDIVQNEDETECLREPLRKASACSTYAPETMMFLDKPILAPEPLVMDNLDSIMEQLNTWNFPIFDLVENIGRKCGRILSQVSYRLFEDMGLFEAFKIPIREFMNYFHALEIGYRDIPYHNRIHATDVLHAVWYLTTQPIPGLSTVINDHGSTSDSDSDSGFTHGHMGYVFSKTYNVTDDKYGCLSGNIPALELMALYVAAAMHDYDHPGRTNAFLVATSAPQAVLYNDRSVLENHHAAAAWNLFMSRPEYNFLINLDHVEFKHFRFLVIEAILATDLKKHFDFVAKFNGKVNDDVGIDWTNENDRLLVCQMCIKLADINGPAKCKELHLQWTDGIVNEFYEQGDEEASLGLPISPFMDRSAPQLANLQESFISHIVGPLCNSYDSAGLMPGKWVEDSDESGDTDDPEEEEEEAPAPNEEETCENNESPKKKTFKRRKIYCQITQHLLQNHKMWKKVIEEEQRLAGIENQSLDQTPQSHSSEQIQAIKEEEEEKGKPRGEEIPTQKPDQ
Method: Partially purified human recombinant phosphodiesterase (PDE3A) was obtained by cloning cDNA and expressing in S. frugiperda insect cells using a baculovirus expression system. Cells were harvested from culture by centrifuging at 400×g for 5 minutes. Cell pellet was resuspended in 20 ml of RIPA Buffer (150 mM NaCl, 10 mM Tris, 0.1% NP-40, pH8.3), 4 ml/200 ml of culture, plus protease inhibitors (100 μl/10 ml) and incubated on ice for 10-20 minutes then spun at 3500×g for 10 minutes at 4° C. Supernatant was kept and the pellet thrown away. Tritium-labeled cyclic AMP was hydrolysed to 5′-AMP by PDE3A. The 5′-AMP was then further hydrolysed to adenosine by nucleotidase in snake venom. An anion-exchange resin binds all charged nucleotides and leaves [3H]adenosine as the only labeled compound to be counted by liquid scintillation. The radiometric assay method is a modification of the two-step method of Thompson and Appleman [Biochemistry 10; 311-316; 1971], adapted for a 96 well plate format. 50 μl of diluted PDE3A was incubated with 50 μl of [3H]-CAMP (specific activity 25 Ci/mmol) and 11 μl of 50% DMSO (or compound dilution) for 20 minutes at 30° C. The enzyme was diluted in 20 mM Tris HCl pH7.4 (×2.2 final concentration) and [3H]-cAMP were diluted in 10 mM MgCl2, 40 mM Tris HCl pH 7.4 (×2.2 final concentration). Reactions were carried out in Greiner 96 deep well 1 ml master-block. The plates were centrifuged for 9 seconds before the 20 minutes incubation. The reaction was terminated by denaturing the PDE enzyme (at 70° C. for 2 minutes, plates were left to cool on ice for 10 minutes) after which 25 μl snake venom nucleotidase (225 ug/ml final concentration) was added and incubated for 10 minutes (at 30° C.), plates were centrifuged for 9 seconds before incubation. After incubation 200 μl Dowex resin (1×8, 200-400 mesh) was added and the plate was shaken for 20 minutes then centrifuged for 3 minutes at 1000×g. 50 μl of supernatant was removed and added to 200 μl of MicroScint-20 in white plates (Greiner 96-well Optiplate) and shaken for 30 minutes before reading on Perkin Elmer TopCount Scintillation Counter. GraphPad Prism™ was used to calculate the IC50 values using a sigmoidal dose response (variable slope). The analysis measures 4 parameters including the best fit values for the bottom and top fit of the curve, the hill slope value and the IC50 value.

Structure (SMILES) | Kd [1] | Selectivity BRD4(2)/BRD4(1) [1] | Kd [2] | IC50 [3]
COc1cc(NC(=O)c2cc3c(nc2N2C[C@H](F)[C@@H](F)C2)COC3)cc2c(C)cc(=O)[nH]c12 (racemic) [Example 43, N-(8-methoxy-4-methyl-2-oxo-1H-quinolin-6-yl)-2-[rac-(3S,4S)-3,4-difluoropyrrolidin-1-yl]-5,7-dihydrofuro[3,4-b]pyridine-3-carboxamide] | 18 nM | 22 | 400 nM | > 10000 nM
COc1cc(NC(=O)c2cc3c(nc2N2CCOCC2)CNC3)cc2c(C)cc(=O)[nH]c12 [Example 1, N-(8-methoxy-4-methyl-2-oxo-1H-quinolin-6-yl)-2-morpholino-6,7-dihydro-5H-pyrrolo[3,4-b]pyridine-3-carboxamide] | 8 nM | 75 | 600 nM | > 10000 nM
COc1cc(NC(=O)c2cc3c(nc2C2=CCOCC2)COC3)cc2c(C)cc(=O)[nH]c12 [Example 2, 2-(3,6-dihydro-2H-pyran-4-yl)-N-(8-methoxy-4-methyl-2-oxo-1H-quinolin-6-yl)-5,7-dihydrofuro[3,4-b]pyridine-3-carboxamide] | 64 nM | 41 | 2600 nM | > 10000 nM
COc1cc(NC(=O)c2cc3c(nc2N(C)C)COC3)cc2c(C)cc(=O)[nH]c12 [Example 6, 2-(dimethylamino)-N-(8-methoxy-4-methyl-2-oxo-1H-quinolin-6-yl)-5,7-dihydrofuro[3,4-b]pyridine-3-carboxamide] | 120 nM | 11 | 1300 nM | > 10000 nM
Cc1cc(=O)[nH]c2c(C)cc(NC(=O)c3cc4c(nc3N3CCOCC3)COC4)cc12 [Example 7, N-(4,8-dimethyl-2-oxo-1H-quinolin-6-yl)-2-morpholino-5,7-dihydrofuro[3,4-b]pyridine-3-carboxamide] | 40 nM | 178 | 7100 nM | > 10000 nM
Cc1cc2[nH]c(=O)cc(C)c2cc1NC(=O)c1cc2c(nc1N1CCOCC1)COC2 [Example 11, N-(4,7-dimethyl-2-oxo-1H-quinolin-6-yl)-2-morpholino-5,7-dihydrofuro[3,4-b]pyridine-3-carboxamide] | 90 nM | >111 | > 10000 nM | 7000 nM
CCOc1cc(NC(=O)c2cc3c(nc2N2CCOCC2)COC3)cc2c(C)cc(=O)[nH]c12 [Example 12, N-(8-ethoxy-4-methyl-2-oxo-1H-quinolin-6-yl)-2-morpholino-5,7-dihydrofuro[3,4-b]pyridine-3-carboxamide] | 87 nM | 93 | 8100 nM | > 10000 nM
Cc1c(NC(=O)c2cc3c(nc2N2CCOCC2)COC3)cc2c(C)cc(=O)[nH]c2c1C [Example 13, 2-morpholino-N-(4,7,8-trimethyl-2-oxo-1H-quinolin-6-yl)-5,7-dihydrofuro[3,4-b]pyridine-3-carboxamide] | 280 nM | >35 | > 10000 nM | > 10000 nM
COc1cc(NC(=O)c2cc3c(nc2N2CCOCC2)COC3)cc2c(C)cc(=O)[nH]c12 [Example 15, N-(8-methoxy-4-methyl-2-oxo-1H-quinolin-6-yl)-2-morpholino-5,7-dihydrofuro[3,4-b]pyridine-3-carboxamide] | 14 nM | 157 | 2200 nM | > 10000 nM
COc1cc(NC(=O)c2cc3c(nc2N2C4CCC2COC4)COC3)cc2c(C)cc(=O)[nH]c12 [Example 17, N-(8-methoxy-4-methyl-2-oxo-1H-quinolin-6-yl)-2-(3-oxa-8-azabicyclo[3.2.1]octan-8-yl)-5,7-dihydrofuro[3,4-b]pyridine-3-carboxamide] | 25 nM | 44 | 1100 nM | > 10000 nM
COc1cc(NC(=O)c2cc3c(nc2N2C[C@H]4C[C@@H]2CO4)COC3)cc2c(C)cc(=O)[nH]c12 [Example 24, N-(8-methoxy-4-methyl-2-oxo-1H-quinolin-6-yl)-2-[(1R,4R)-2-oxa-5-azabicyclo[2.2.1]heptan-5-yl]-5,7-dihydrofuro[3,4-b]pyridine-3-carboxamide] | – | – | – | > 10000 nM
COc1cc(NC(=O)c2cc3c(nc2N(C)CC2CC2)COC3)cc2c(C)cc(=O)[nH]c12 [Example 26, 2-[cyclopropylmethyl(methyl)amino]-N-(8-methoxy-4-methyl-2-oxo-1H-quinolin-6-yl)-5,7-dihydrofuro[3,4-b]pyridine-3-carboxamide] | 51 nM | 61 | 3100 nM | > 10000 nM
COc1cc(NC(=O)c2cc3c(nc2N2CCOCC2)CCC3)cc2c(C)cc(=O)[nH]c12 [Example 29, N-(8-methoxy-4-methyl-2-oxo-1H-quinolin-6-yl)-2-morpholino-6,7-dihydro-5H-cyclopenta[b]pyridine-3-carboxamide] | 18 nM | 106 | 1900 nM | > 10000 nM
Cc1cc(=O)[nH]c2c(OCCO)cc(NC(=O)c3cc4c(nc3N3CCOCC3)COC4)cc12 [Example 36, N-[8-(2-hydroxyethoxy)-4-methyl-2-oxo-1H-quinolin-6-yl]-2-morpholino-5,7-dihydrofuro[3,4-b]pyridine-3-carboxamide] | 27 nM | 15 | 400 nM | > 10000 nM
Cc1cc(=O)[nH]c2c(OC3CNC3)cc(NC(=O)c3cc4c(nc3N3CCOCC3)COC4)cc12 [Example 37, N-[8-(azetidin-3-yloxy)-4-methyl-2-oxo-1H-quinolin-6-yl]-2-morpholino-5,7-dihydrofuro[3,4-b]pyridine-3-carboxamide] | 35 nM | >286 | > 10000 nM | > 10000 nM
CNCCOc1cc(NC(=O)c2cc3c(nc2N2CCOCC2)COC3)cc2c(C)cc(=O)[nH]c12 [Example 38, N-[4-methyl-8-[2-(methylamino)ethoxy]-2-oxo-1H-quinolin-6-yl]-2-morpholino-5,7-dihydrofuro[3,4-b]pyridine-3-carboxamide] | 20 nM | >250 | > 5000 nM | > 10000 nM
COc1cc(NC(=O)c2cc3c(nc2N2C4CCC2CC4)COC3)cc2c(C)cc(=O)[nH]c12 [Example 39, 2-(7-azabicyclo[2.2.1]heptan-7-yl)-N-(8-methoxy-4-methyl-2-oxo-1H-quinolin-6-yl)-5,7-dihydrofuro[3,4-b]pyridine-3-carboxamide] | 7 nM | 43 | 300 nM | > 10000 nM
COc1cc(NC(=O)c2cc3c(nc2N2C[C@@H](F)[C@@H](F)C2)COC3)cc2c(C)cc(=O)[nH]c12 [Example 42, N-(8-methoxy-4-methyl-2-oxo-1H-quinolin-6-yl)-2-[rac-(3R,4S)-3,4-difluoropyrrolidin-1-yl]-5,7-dihydrofuro[3,4-b]pyridine-3-carboxamide] | 26 nM | 16 | 400 nM | –
